# Tests used:
# Assay type in all cases: cell-based, human
# [1] = test system: HUVEC endothelial barrier; assay: Endothelial barrier integrity study (FITC-dextran 70 kDa diffusion into hydrogel island); settings: HUVEC treated with 100 and 500 nM for 3 days; 60 min dextran incubation
# Protocol: To assess the endothelial barrier integrity after drug treatment in the spheroid-in-gel chip, Collagen I (3 mg/mL) and HUVEC were seeded into the chip as described in example 2C. Sub-confluent HUVEC were treated with Paclitaxel (100 and 500 nM) and cultured for 3 days prior to the barrier permeability test. Fluorescence images were taken before and after 1 hr incubation with 10 μg/mL 70 kDa dextran conjugated with fluorescein isothiocyanate (FITC, Sigma Aldrich, St. Louis, MO, USA) loaded in the fluidic channels. Fluorescence intensities within the hydrogel island were expressed as the fold change (time 60 min over 0 min) and normalized to the untreated control.
# [2] = test system: MCF-7 spheroids; assay: Live/dead assay (Calcein-AM/PI) of spheroids-in-gel after drug treatment; settings: 3 days treatment
# Protocol: For spheroid-in-gel culture on the microarray chip, the PDMS surface was made hydrophilic by a 1-min plasma treatment using a plasma cleaner (PDC-002, Harrick Plasma Inc, Ithaca, NY, USA) to ensure even spreading of hydrogel onto the surface of the island. MCF-7 cells were dissociated and resuspended to a concentration of 1.7 million per mL. Collagen I was added to the suspension at 20 g/mL to enhance spheroid formation. MCF-7 suspension was loaded onto each island (3 L per island), following which the PDMS chip was inverted on top of a water reservoir for a hanging drop culture. […] The chip was maintained 37 °C for 2 days to allow for spheroid formation. […] Upon spheroid formation, the chip was subjected to media evaporation in the 37° C. incubator, following which collagen I (3 mg/mL) or Matrigel (4 mg/mL, Corning. NY, USA) was loaded onto each island (2 L per island) for in-place encapsulation of the spheroid. The chip was incubated at 37° C. for 30 min to allow for gelation of collagen and Matrigel, following which DMEM with 10% FBS was added into the fluidic channel. For co-culture with HUVEC, the channel was coated with polydopamine (1 mg/mL) for 30 min at 37° ° C. to facilitate HUVEC adhesion and growth. The polydopamine solution was prepared by dissolving dopamine hydrochloride (Sigma Aldrich, St. Louis, MO, USA) in Tris-HCl buffer, pH 8.5. The channel was washed with 1× Phosphate Buffer Saline (PBS) three times, following which a suspension of HUVEC (1.5 million/mL) was loaded into the channel and allowed to grow for 2 days to reach confluency. The HUVEC were cultivated under static conditions. […] The cells/spheroids were then imaged using a fluorescence microscope (Nikon Eclipse Ti, Melville, NY, USA). […] Fluorescence intensity of Calcein-AM and PI was analyzed using ImageJ and calculated according to equation (1) below. […] Spheroid area is determined by Hoechst staining. […] The same set of imaging parameters including exposure time and focal plane was used when acquiring the images to minimize inaccuracies in the fluorescence intensity.
# [3] = test system: HUVEC; assay: Live/dead assay (Calcein-AM/PI) of endothelial cells co-cultured with spheroids after drug treatment; settings: spheroid co-cultured with HUVEC, 3 days treatment
# Protocol: The chip was incubated at 37° C. for 30 min to allow for gelation of collagen and Matrigel, following which DMEM with 10% FBS was added into the fluidic channel. For co-culture with HUVEC, the channel was coated with polydopamine (1 mg/mL) for 30 min at 37° ° C. to facilitate HUVEC adhesion and growth. The polydopamine solution was prepared by dissolving dopamine hydrochloride (Sigma Aldrich, St. Louis, MO, USA) in Tris-HCl buffer, pH 8.5. The channel was washed with 1× Phosphate Buffer Saline (PBS) three times, following which a suspension of HUVEC (1.5 million/mL) was loaded into the channel and allowed to grow for 2 days to reach confluency. The HUVEC were cultivated under static conditions.
# Following that, the cells were stained with VE-Cadherin rabbit anti-human CD144 primary antibody (10 μg/mL, Enzo, Farmingdale, NY, USA) overnight at 4° C. On the next day, the cells were rinsed with 0.1% BSA in PBS three times, and fluorescently labeled with AlexaFluor 488 goat anti-rabbit secondary antibody (20 μg/mL, Life Technologies, Carlsbad, CA, USA) for 4 hr at room temperature. […]
# The cells/spheroids were then imaged using a fluorescence microscope (Nikon Eclipse Ti, Melville, NY, USA). […] Fluorescence intensity of Calcein-AM and PI was analyzed using ImageJ and calculated according to equation (1) below.
compound,measurement,setting,value
CC(=O)O[C@H]1C(=O)[C@@]2(C)[C@H]([C@H](OC(=O)c3ccccc3)[C@]3(O)C[C@H](OC(=O)[C@H](O)[C@@H](NC(=O)c4ccccc4)c4ccccc4)C(C)=C1C3(C)C)[C@]1(OC(C)=O)CO[C@@H]1C[C@@H]2O [Paclitaxel],Endothelial barrier integrity based on diffusion of FITC-Dextran 70 kDa into the hydrogel islands,[1],impaired the endothelial barrier integrity
same,MCF-7 death by live/dead staining (Calcein-AM/PI),"[2]; mono-cultured spheroids, PTX 1, 100, 500 nM",higher MCF-7 death with increasing drug concentration
same,"PI intensity of drug-treated spheroids, mono-culture versus co-culture","[2]; with or without HUVEC co-culture, PTX 1, 100, 500 nM",negligible differences in PI intensity
same,"Spheroid Calcein-AM intensity (survival), co-culture versus mono-culture","[2]; with or without HUVEC co-culture, normalized to untreated group","trend of better survival of spheroids in co-cultures as compared to mono-culture, although no significant difference was observed"
same,EC death by live/dead staining (Calcein-AM/PI),[3],higher EC death

# Source: patent US20240228950A1, “MICROPATTERNED 3D HYDROGEL MICROARRAY IN FLUIDIC CHANNELS FOR SPHEROID-IN-GEL CULTURE” (NANYANG TECHNOLOGICAL UNIVERSITY, priority 2021, published 2024)
